# Experiments:
# Test in all cases: KINOMEscan competition binding
# Details in all cases: OR0642 1 µM; read-out: %Control
# JNK1 = target: T1, JNK1 (Homo sapiens, UniProt P45983)
# T1 construct: purchased Eurofins DiscoverX (KINOMEscan scanEDGE 97)
# Procedure: (§1) Kinome profiling was provided by Eurofins DiscoverX Corporation. Determination of the % control activity for 97 kinases was obtained through an active site-directed competition binding assay that quantitatively measure interactions between compound and kinases. OR0642 was used at 1 μM.
# (§2) Supplementary Table 3. KINOMEscan™ Profiling of OR0642. Competition binding assay to
# (§3) quantitatively measure interactions between OR0642 (1 µM) and 97 human kinases and disease
# (§4) relevant mutant variants.
# CDK11 = target: T2, CDK11 (Homo sapiens, UniProt Q9BWU1)
# T2 construct: purchased Eurofins DiscoverX (KINOMEscan scanEDGE 97)
# T2 sequence (Q9BWU1 whole entry): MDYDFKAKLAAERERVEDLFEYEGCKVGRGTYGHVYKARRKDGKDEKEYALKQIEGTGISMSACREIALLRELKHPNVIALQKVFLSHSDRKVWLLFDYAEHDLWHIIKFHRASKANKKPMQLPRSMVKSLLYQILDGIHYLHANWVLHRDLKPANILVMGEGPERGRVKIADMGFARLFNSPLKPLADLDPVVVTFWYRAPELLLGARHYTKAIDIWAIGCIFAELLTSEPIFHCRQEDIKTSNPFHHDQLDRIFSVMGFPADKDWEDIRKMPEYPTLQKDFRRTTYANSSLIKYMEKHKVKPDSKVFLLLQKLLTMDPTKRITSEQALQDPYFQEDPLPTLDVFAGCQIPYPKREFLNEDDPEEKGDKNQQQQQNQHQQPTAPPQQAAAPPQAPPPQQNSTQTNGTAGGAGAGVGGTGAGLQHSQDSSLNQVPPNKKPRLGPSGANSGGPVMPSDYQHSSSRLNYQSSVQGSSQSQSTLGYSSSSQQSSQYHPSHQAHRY
# Procedure: as §1, §2, §3, §4
# PDGFRB = target: T3, PDGFRB (Homo sapiens, UniProt P09619)
# T3 construct: purchased Eurofins DiscoverX (KINOMEscan scanEDGE 97)
# Procedure: as §1, §2, §3, §4
# CSNK1D = target: T4, CSNK1D (Homo sapiens, UniProt P48730)
# T4 construct: purchased Eurofins DiscoverX (KINOMEscan scanEDGE 97)
# Procedure: as §1, §2, §3, §4
# CDK3 = target: T5, CDK3 (Homo sapiens, UniProt Q00526)
# T5 construct: purchased Eurofins DiscoverX (KINOMEscan scanEDGE 97)
# T5 sequence (Q00526 whole entry): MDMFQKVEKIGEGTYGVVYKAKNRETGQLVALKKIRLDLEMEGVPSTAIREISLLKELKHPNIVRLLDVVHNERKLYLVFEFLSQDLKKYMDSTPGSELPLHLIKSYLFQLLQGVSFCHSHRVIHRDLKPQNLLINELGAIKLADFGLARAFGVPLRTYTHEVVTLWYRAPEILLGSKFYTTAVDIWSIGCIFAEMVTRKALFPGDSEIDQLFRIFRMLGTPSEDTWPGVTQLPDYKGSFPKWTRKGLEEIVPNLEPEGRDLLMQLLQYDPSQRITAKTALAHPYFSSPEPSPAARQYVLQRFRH
# Procedure: as §1, §2, §3, §4
# INSR = target: T6, INSR (Homo sapiens, UniProt P06213)
# T6 construct: purchased Eurofins DiscoverX (KINOMEscan scanEDGE 97)
# Procedure: as §1, §2, §3, §4
# PIK3C2B = target: T7, PIK3C2B (Homo sapiens, UniProt O00750)
# T7 construct: purchased Eurofins DiscoverX (KINOMEscan scanEDGE 97)
# Procedure: as §1, §2, §3, §4
# FLT3 = target: T8, FLT3 (Homo sapiens, UniProt P36888)
# T8 construct: purchased Eurofins DiscoverX (KINOMEscan scanEDGE 97)
# Procedure: as §1, §2, §3, §4
# KIT(D816V) = target: T9, KIT(D816V) (Homo sapiens, UniProt P10721, D816V)
# T9 construct: purchased Eurofins DiscoverX (KINOMEscan scanEDGE 97)
# Procedure: as §1, §2, §3, §4
# IKK-beta = target: T10, IKK-beta (Homo sapiens, UniProt O14920)
# T10 construct: purchased Eurofins DiscoverX (KINOMEscan scanEDGE 97)
# Procedure: as §1, §2, §3, §4
# CSF1R = target: T11, CSF1R (Homo sapiens, UniProt P07333)
# T11 construct: purchased Eurofins DiscoverX (KINOMEscan scanEDGE 97)
# Procedure: as §1, §2, §3, §4
# MEK1 = target: T12, MEK1 (Homo sapiens, UniProt Q02750)
# T12 construct: purchased Eurofins DiscoverX (KINOMEscan scanEDGE 97)
# Procedure: as §1, §2, §3, §4
# MEK2 = target: T13, MEK2 (Homo sapiens, UniProt P36507)
# T13 construct: purchased Eurofins DiscoverX (KINOMEscan scanEDGE 97)
# Procedure: as §1, §2, §3, §4
# KIT = target: T14, KIT (Homo sapiens, UniProt P10721)
# T14 construct: purchased Eurofins DiscoverX (KINOMEscan scanEDGE 97)
# T14 sequence (P10721 26-976): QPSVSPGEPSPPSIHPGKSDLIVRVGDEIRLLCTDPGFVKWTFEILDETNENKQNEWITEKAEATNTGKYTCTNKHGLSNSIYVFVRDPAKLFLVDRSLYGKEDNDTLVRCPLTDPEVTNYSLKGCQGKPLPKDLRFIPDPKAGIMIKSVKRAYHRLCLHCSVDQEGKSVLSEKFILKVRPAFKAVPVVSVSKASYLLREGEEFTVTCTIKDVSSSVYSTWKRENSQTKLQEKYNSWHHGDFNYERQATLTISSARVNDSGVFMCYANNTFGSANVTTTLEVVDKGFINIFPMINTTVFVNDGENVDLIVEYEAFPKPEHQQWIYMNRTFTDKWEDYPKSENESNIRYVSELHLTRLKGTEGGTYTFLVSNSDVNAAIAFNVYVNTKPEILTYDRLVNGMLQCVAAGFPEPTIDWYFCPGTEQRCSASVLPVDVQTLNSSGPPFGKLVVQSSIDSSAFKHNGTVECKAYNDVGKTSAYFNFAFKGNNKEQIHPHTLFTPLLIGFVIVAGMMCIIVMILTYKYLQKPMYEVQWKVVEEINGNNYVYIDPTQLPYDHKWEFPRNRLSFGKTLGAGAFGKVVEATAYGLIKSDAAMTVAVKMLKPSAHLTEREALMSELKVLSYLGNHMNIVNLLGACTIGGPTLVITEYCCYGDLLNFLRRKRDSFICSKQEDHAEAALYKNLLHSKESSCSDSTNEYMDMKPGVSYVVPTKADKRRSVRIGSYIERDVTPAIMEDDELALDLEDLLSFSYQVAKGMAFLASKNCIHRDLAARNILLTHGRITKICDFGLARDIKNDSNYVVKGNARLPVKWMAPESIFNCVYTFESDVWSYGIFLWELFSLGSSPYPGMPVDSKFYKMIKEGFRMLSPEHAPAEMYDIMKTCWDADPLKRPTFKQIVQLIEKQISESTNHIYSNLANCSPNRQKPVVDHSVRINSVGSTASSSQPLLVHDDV
# Procedure: as §1, §2, §3, §4
# MKNK2 = target: T15, MKNK2 (Homo sapiens, UniProt Q9HBH9)
# T15 construct: purchased Eurofins DiscoverX (KINOMEscan scanEDGE 97)
# Procedure: as §1, §2, §3, §4
# PIK3CG = target: T16, PIK3CG (Homo sapiens, UniProt P48736)
# T16 construct: purchased Eurofins DiscoverX (KINOMEscan scanEDGE 97)
# Procedure: as §1, §2, §3, §4
# MARK3 = target: T17, MARK3 (Homo sapiens, UniProt P27448)
# T17 construct: purchased Eurofins DiscoverX (KINOMEscan scanEDGE 97)
# Procedure: as §1, §2, §3, §4
# PDGFRA = target: T18, PDGFRA (Homo sapiens, UniProt P16234)
# T18 construct: purchased Eurofins DiscoverX (KINOMEscan scanEDGE 97)
# Procedure: as §1, §2, §3, §4
# IGF1R = target: T19, IGF1R (Homo sapiens, UniProt P08069)
# T19 construct: purchased Eurofins DiscoverX (KINOMEscan scanEDGE 97)
# Procedure: as §1, §2, §3, §4
# ACVR1B = target: T20, ACVR1B (Homo sapiens, UniProt P36896)
# T20 construct: purchased Eurofins DiscoverX (KINOMEscan scanEDGE 97)
# T20 sequence (P36896 24-505): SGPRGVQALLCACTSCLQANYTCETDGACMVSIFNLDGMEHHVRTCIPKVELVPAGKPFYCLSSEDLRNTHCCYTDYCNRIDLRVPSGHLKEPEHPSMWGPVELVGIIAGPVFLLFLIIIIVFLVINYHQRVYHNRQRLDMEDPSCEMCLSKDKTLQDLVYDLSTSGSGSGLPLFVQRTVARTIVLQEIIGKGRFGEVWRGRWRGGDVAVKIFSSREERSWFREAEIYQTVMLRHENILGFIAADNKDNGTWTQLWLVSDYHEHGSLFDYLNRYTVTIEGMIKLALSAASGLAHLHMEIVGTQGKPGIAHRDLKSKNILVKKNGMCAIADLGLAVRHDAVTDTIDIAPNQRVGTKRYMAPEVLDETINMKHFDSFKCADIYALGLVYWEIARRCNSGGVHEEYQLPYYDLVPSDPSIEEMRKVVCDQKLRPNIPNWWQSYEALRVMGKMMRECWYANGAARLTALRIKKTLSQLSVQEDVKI
# Procedure: as §1, §2, §3, §4
# BMPR2 = target: T21, BMPR2 (Homo sapiens, UniProt Q13873)
# T21 construct: purchased Eurofins DiscoverX (KINOMEscan scanEDGE 97)
# Procedure: as §1, §2, §3, §4
# BRAF(V600E) = target: T22, BRAF(V600E) (Homo sapiens, UniProt P15056, V600E)
# T22 construct: purchased Eurofins DiscoverX (KINOMEscan scanEDGE 97)
# Procedure: as §1, §2, §3, §4
# IKK-alpha = target: T23, IKK-alpha (Homo sapiens, UniProt O15111)
# T23 construct: purchased Eurofins DiscoverX (KINOMEscan scanEDGE 97)
# Procedure: as §1, §2, §3, §4
# [1] = target: T24, ABL1(T315I)-phosphorylated (Homo sapiens, UniProt P00519, T315I)
# T24 construct: purchased Eurofins DiscoverX (KINOMEscan scanEDGE 97)
# Procedure: as §1, §2, §3, §4
# FAK = target: T25, FAK (Homo sapiens, UniProt Q05397)
# T25 construct: purchased Eurofins DiscoverX (KINOMEscan scanEDGE 97)
# Procedure: as §1, §2, §3, §4
# ADCK3 = target: T26, ADCK3 (Homo sapiens, UniProt Q8NI60)
# T26 construct: purchased Eurofins DiscoverX (KINOMEscan scanEDGE 97)
# Procedure: as §1, §2, §3, §4
# DYRK1B = target: T27, DYRK1B (Homo sapiens, UniProt Q9Y463)
# T27 construct: purchased Eurofins DiscoverX (KINOMEscan scanEDGE 97)
# T27 sequence (Q9Y463 whole entry): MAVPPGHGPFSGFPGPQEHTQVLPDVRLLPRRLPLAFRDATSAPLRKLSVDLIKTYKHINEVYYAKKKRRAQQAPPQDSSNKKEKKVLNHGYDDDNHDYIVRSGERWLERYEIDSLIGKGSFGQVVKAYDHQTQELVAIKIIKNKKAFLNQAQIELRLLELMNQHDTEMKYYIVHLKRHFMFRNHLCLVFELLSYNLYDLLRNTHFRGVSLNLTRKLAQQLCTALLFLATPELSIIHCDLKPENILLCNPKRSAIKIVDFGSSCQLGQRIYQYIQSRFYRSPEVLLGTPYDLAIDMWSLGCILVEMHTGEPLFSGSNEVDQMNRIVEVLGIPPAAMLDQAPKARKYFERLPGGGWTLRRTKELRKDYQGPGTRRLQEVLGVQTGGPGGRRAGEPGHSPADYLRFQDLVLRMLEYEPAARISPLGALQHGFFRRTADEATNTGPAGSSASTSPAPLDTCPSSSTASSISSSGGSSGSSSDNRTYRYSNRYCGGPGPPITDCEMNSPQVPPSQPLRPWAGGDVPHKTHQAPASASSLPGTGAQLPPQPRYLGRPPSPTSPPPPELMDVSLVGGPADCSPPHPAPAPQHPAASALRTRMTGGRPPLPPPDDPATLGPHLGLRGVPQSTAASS
# Procedure: as §1, §2, §3, §4
# MKNK1 = target: T28, MKNK1 (Homo sapiens, UniProt Q9BUB5)
# T28 construct: purchased Eurofins DiscoverX (KINOMEscan scanEDGE 97)
# Procedure: as §1, §2, §3, §4
# JNK3 = target: T29, JNK3 (Homo sapiens, UniProt P53779)
# T29 construct: purchased Eurofins DiscoverX (KINOMEscan scanEDGE 97)
# T29 sequence (P53779 whole entry): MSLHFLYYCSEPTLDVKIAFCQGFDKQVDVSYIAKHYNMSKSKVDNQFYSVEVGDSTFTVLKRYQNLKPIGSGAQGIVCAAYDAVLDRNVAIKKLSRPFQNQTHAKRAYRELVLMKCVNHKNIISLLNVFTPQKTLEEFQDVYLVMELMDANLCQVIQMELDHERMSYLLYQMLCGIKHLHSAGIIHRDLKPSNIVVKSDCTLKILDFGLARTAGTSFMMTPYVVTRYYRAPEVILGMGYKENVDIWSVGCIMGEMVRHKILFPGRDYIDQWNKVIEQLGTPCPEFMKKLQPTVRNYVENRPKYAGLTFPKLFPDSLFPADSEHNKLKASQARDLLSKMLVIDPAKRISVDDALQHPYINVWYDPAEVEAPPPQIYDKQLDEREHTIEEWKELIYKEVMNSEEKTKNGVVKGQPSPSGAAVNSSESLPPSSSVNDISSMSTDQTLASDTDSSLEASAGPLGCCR
# Procedure: as §1, §2, §3, §4
# [2] = target: T30, ABL1(E255K)-phosphorylated (Homo sapiens, UniProt P00519, E255K)
# T30 construct: purchased Eurofins DiscoverX (KINOMEscan scanEDGE 97)
# Procedure: as §1, §2, §3, §4
# JNK2 = target: T31, JNK2 (Homo sapiens, UniProt P45984)
# T31 construct: purchased Eurofins DiscoverX (KINOMEscan scanEDGE 97)
# Procedure: as §1, §2, §3, §4
# PCTK1 = target: T32, PCTK1 (Homo sapiens, UniProt Q00536)
# T32 construct: purchased Eurofins DiscoverX (KINOMEscan scanEDGE 97)
# T32 sequence (Q00536 whole entry): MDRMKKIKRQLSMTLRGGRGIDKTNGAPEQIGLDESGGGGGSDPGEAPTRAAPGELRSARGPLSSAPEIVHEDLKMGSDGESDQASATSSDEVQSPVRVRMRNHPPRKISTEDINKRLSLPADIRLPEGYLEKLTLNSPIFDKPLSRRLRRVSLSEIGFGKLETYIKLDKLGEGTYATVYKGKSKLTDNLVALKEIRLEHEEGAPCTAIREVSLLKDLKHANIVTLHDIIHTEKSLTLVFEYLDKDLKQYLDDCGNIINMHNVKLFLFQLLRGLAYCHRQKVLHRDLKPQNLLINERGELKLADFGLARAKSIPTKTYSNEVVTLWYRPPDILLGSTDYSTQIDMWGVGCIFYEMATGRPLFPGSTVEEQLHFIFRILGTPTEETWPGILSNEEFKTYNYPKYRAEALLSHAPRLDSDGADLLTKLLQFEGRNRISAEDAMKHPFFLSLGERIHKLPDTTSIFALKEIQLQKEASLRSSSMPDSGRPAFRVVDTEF
# Procedure: as §1, §2, §3, §4
# EPHA2 = target: T33, EPHA2 (Homo sapiens, UniProt P29317)
# T33 construct: purchased Eurofins DiscoverX (KINOMEscan scanEDGE 97)
# Procedure: as §1, §2, §3, §4
# CSNK1G2 = target: T34, CSNK1G2 (Homo sapiens, UniProt P78368)
# T34 construct: purchased Eurofins DiscoverX (KINOMEscan scanEDGE 97)
# Procedure: as §1, §2, §3, §4
# EGFR(L858R) = target: T35, EGFR(L858R) (Homo sapiens, UniProt P00533, L858R)
# T35 construct: purchased Eurofins DiscoverX (KINOMEscan scanEDGE 97)
# T35 sequence (P00533 25-1210 L858R): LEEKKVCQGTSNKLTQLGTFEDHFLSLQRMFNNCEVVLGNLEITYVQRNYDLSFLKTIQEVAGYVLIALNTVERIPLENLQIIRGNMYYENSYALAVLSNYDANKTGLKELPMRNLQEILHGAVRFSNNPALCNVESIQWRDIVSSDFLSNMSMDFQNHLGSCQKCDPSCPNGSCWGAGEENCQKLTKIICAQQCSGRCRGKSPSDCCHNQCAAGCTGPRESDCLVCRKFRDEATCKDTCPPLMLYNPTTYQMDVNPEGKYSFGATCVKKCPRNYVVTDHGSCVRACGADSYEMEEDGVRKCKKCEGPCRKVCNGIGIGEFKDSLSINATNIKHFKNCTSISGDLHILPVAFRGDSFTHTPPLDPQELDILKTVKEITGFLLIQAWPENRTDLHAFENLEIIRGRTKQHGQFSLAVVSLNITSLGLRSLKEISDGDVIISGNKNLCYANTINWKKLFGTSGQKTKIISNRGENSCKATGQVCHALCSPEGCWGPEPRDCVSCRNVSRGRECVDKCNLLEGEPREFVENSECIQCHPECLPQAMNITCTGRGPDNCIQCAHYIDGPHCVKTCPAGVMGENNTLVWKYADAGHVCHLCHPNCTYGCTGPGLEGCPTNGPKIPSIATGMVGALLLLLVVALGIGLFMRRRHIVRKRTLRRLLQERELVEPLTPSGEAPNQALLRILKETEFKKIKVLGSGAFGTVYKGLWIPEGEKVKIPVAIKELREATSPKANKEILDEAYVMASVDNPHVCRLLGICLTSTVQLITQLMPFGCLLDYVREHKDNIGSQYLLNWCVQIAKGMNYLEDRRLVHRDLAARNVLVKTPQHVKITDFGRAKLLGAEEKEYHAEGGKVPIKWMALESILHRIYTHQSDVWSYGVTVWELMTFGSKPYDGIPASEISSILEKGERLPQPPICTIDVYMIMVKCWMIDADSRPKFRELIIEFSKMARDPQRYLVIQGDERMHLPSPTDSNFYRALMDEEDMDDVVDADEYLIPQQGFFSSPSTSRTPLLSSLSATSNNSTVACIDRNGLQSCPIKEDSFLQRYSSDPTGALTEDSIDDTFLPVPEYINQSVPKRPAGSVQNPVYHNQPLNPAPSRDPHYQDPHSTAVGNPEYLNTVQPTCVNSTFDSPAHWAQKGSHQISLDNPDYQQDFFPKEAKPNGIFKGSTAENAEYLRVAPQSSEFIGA
# Procedure: as §1, §2, §3, §4
# PAK2 = target: T36, PAK2 (Homo sapiens, UniProt Q13177)
# T36 construct: purchased Eurofins DiscoverX (KINOMEscan scanEDGE 97)
# Procedure: as §1, §2, §3, §4
# PAK4 = target: T37, PAK4 (Homo sapiens, UniProt O96013)
# T37 construct: purchased Eurofins DiscoverX (KINOMEscan scanEDGE 97)
# Procedure: as §1, §2, §3, §4
# DCAMKL1 = target: T38, DCAMKL1 (Homo sapiens, UniProt O15075)
# T38 construct: purchased Eurofins DiscoverX (KINOMEscan scanEDGE 97)
# Procedure: as §1, §2, §3, §4
# MLK1 = target: T39, MLK1 (Homo sapiens, UniProt P80192)
# T39 construct: purchased Eurofins DiscoverX (KINOMEscan scanEDGE 97)
# Procedure: as §1, §2, §3, §4
# BTK = target: T40, BTK (Homo sapiens, UniProt Q06187)
# T40 construct: purchased Eurofins DiscoverX (KINOMEscan scanEDGE 97)
# Procedure: as §1, §2, §3, §4
# GSK3B = target: T41, GSK3B (Homo sapiens, UniProt P49841)
# T41 construct: purchased Eurofins DiscoverX (KINOMEscan scanEDGE 97)
# Procedure: as §1, §2, §3, §4
# CDK7 = target: T42, CDK7 (Homo sapiens, UniProt P50613)
# T42 construct: purchased Eurofins DiscoverX (KINOMEscan scanEDGE 97)
# Procedure: as §1, §2, §3, §4
smiles,measurement,setting,value
CCCN(c1nc(-c2nc(N)cc(N)n2)cs1)c1cc(-c2ccc(S(=O)(=O)N3CCN(C)CC3)cc2C(F)(F)F)ccc1C [OR0642],remaining binding at 1 µM,JNK1,93%
same,remaining binding at 1 µM,CDK11,100%
same,remaining binding at 1 µM,PDGFRB,100%
same,remaining binding at 1 µM,CSNK1D,100%
same,remaining binding at 1 µM,CDK3,97%
same,remaining binding at 1 µM,INSR,99%
same,remaining binding at 1 µM,PIK3C2B,100%
same,remaining binding at 1 µM,FLT3,100%
same,remaining binding at 1 µM,KIT(D816V),94%
same,remaining binding at 1 µM,IKK-beta,90%
same,remaining binding at 1 µM,CSF1R,100%
same,remaining binding at 1 µM,MEK1,97%
same,remaining binding at 1 µM,MEK2,96%
same,remaining binding at 1 µM,KIT,91%
same,remaining binding at 1 µM,MKNK2,79%
same,remaining binding at 1 µM,PIK3CG,100%
same,remaining binding at 1 µM,MARK3,100%
same,remaining binding at 1 µM,PDGFRA,97%
same,remaining binding at 1 µM,IGF1R,93%
same,remaining binding at 1 µM,ACVR1B,86%
same,remaining binding at 1 µM,BMPR2,94%
same,remaining binding at 1 µM,BRAF(V600E),98%
same,remaining binding at 1 µM,IKK-alpha,65%
same,remaining binding at 1 µM,[1],89%
same,remaining binding at 1 µM,FAK,100%
same,remaining binding at 1 µM,ADCK3,95%
same,remaining binding at 1 µM,DYRK1B,100%
same,remaining binding at 1 µM,MKNK1,100%
same,remaining binding at 1 µM,JNK3,81%
same,remaining binding at 1 µM,[2],96%
same,remaining binding at 1 µM,JNK2,84%
same,remaining binding at 1 µM,PCTK1,98%
same,remaining binding at 1 µM,EPHA2,90%
same,remaining binding at 1 µM,CSNK1G2,91%
same,remaining binding at 1 µM,EGFR(L858R),72%
same,remaining binding at 1 µM,PAK2,98%
same,remaining binding at 1 µM,PAK4,91%
same,remaining binding at 1 µM,DCAMKL1,81%
same,remaining binding at 1 µM,MLK1,91%
same,remaining binding at 1 µM,BTK,92%
same,remaining binding at 1 µM,GSK3B,100%
same,remaining binding at 1 µM,CDK7,94%
